Measurements from patent publication US20150345047A1, “SYSTEMS AND METHODS FOR IDENTIFYING DRUG COMBINATIONS FOR REDUCED DRUG RESISTANCE IN CANCER TREATMENT” (Memorial Sloan Kettering Cancer Center, priority 2014, published 2015).

Assays:
Type in all cases: cell-based
STAT3pY705 = experiment: Western blot IC40 of downstream effector readout; conditions: concentration inhibiting STAT3pY705 readout by 40%, SkMel133
Method: (§1) In total, cells were treated with 89 unique perturbations (Table 3). In paired combinations, each drug concentration was selected to inhibit the readout for the presumed target or the downstream effectors by 40% (IC40) as determined by Western Blot experiments. In single agent perturbations, each drug is applied at two different concentrations, IC40 and 2×IC40.

MAPK1pT202 = experiment: Western blot IC40 of downstream effector readout; conditions: concentration inhibiting MAPK1pT202 readout by 40%, SkMel133
Method: as §1

AKTpS473 = experiment: Western blot IC40 of downstream effector readout; conditions: concentration inhibiting AKTpS473 readout by 40%, SkMel133
Method: as §1

S6pS240 = experiment: Western blot IC40 of downstream effector readout; conditions: concentration inhibiting S6pS240 readout by 40%, SkMel133
Method: as §1

4EBP1pS65 = experiment: Western blot IC40 of downstream effector readout; conditions: concentration inhibiting 4EBP1pS65 readout by 40%, SkMel133
Method: as §1

GSK3pS21 = experiment: Western blot IC40 of downstream effector readout; conditions: concentration inhibiting GSK3pS21 readout by 40%, SkMel133
Method: as §1

c-Myc = experiment: Western blot of c-Myc expression; conditions: 24 hours after drug treatment, SkMel133
Method: (§2) FIGS. 6A-6E illustrate the combined targeting of c-Myc with MEK and BRAF leads to synergistic response in melanoma cells. […] The leftward shift of isocurves implies synergistic interactions between the applied perturbations. u denotes strength of in silico perturbations. […] The BRD4 level is unchanged in response to JQ1 treatment. […] C-Myc expression is targeted with BRD4 inhibitor, JQ1. […] Cell viability is measured using the resazurin assay. […] The combination index (CI) calculated using the drug dose response curves quantifies the drug interactions between JQ1, MEKi and RAFi (left panel). CI for a given level of inhibition is a measure of the fractional shift between the combination doses (C1 and C2) and the single agent's inhibitory concentration (Cx,1, Cx,2). It is formulated as CI=(C1/Cx,1)[…](C2/Cx,2). Amax is the response of melanoma cells to JQ1, MEKi and RAFi at highest doses applied (right panel). 1-Amax is the fraction of cells alive in response to highest drug dose normalized with respect to the non-drug treated condition. […] 86% of cells are in G1 state 48 hours after JQ1 treatment, while 42% of the cells are in G1 state before drug treatment (error bars: ±SEM in 3 biological replicates).
First, it was postulated whether c-Myc levels in SkMel133 cells could be targeted using JQ1. […]

SkMel133 cells = experiment: Cell viability, resazurin assay; conditions: highest doses applied
Method: All phenotypic measurements were made in perturbation conditions identical to those in proteomic measurements. Cell viability and cell cycle progression were measured 72 hours after drug treatment using the Resazurin assay and flow cytometry analysis respectively. The percentage of cells in the G1, G2/M, and S phases and sub-G1 fraction were recorded based on the respective distribution of DNA content in each phase.

BRD4 = experiment: Western blot of BRD4 level; conditions: 24 hours after treatment
Method: as §2

P27/Kip1 = experiment: Western blot IC40 of downstream effector readout; conditions: concentration changing P27/Kip1 readout by 40%, SkMel133
Method: as §1

## O=[N+]([O-])c1ccc2c(c1)S(=O)(=O)C=C2 [Stattic]
STAT3pY705
  Dose 1 (IC40): 600 nM

## CCCS(=O)(=O)Nc1ccc(F)c(C(=O)c2c[nH]c3ncc(Cl)cc23)c1F [PLX4720]
MAPK1pT202
  Dose 1 (IC40): 60 nM

## O=c1[nH]c2ccccc2n1C1CCN(Cc2ccc(-c3nc4cc5nc[nH]c5cc4nc3-c3ccccc3)cc2)CC1 [AKTi 1/2]
AKTpS473
  Dose 1 (IC40): 5.000 nM

## CO[C@H]1C[C@@H]2CC[C@@H](C)[C@@](O)(O2)C(=O)C(=O)N2CCCC[C@H]2C(=O)O[C@H]([C@H](C)C[C@@H]2CC[C@@H](OC(=O)C(C)(CO)CO)[C@H](OC)C2)CC(=O)[C@H](C)/C=C(\C)[C@@H](O)[C@@H](OC)C(=O)[C@H](C)C[C@H](C)/C=C/C=C/C=C/1C [Temsirolimus]
S6pS240
  Dose 1 (IC40): 0.3 nM

## COc1ccc(C2=NC(c3ccc(Cl)cc3)C(c3ccc(Cl)cc3)N2C(=O)N2CCNC(=O)C2)c(OC(C)C)c1 (stereo not shown) [Nutlin]
4EBP1pS65
  Dose 1 (IC40): 3,000 nM

## CC(C)(C)c1nc2c3cc[nH]c(=O)c3c3cc(F)ccc3c2[nH]1 [P6]
GSK3pS21
  Dose 1 (IC40): 20 nM

## Cc1sc2c(c1C)C(c1ccc(Cl)cc1)=N[C@@H](CC(=O)OC(C)(C)C)c1nnc(C)n1-2 [JQ1]
c-Myc
  c-Myc expression level: reduced
SkMel133 cells
  maximal effect level (Amax, response to the drugs at highest doses): 10%
BRD4
  BRD4 level: unchanged

## O=C(CCCCCCSc1ccc2ccccc2c1)NO [HNHA]
P27/Kip1
  Dose 1 (IC40): 6,000 nM

## Cn1cc(C2=C(c3cn(CCCN)c4ccccc34)C(=O)NC2=O)c2ccccc21 [RO-31-7549]
S6pS240
  Dose 1 (IC40): 3500 nM

## O=C(NOC[C@H](O)CO)c1ccc(F)c(F)c1Nc1ccc(I)cc1F [PD0325901]
MAPK1pT202
  Dose 1 (IC40): 1.5 nM

## FC(F)c1nc2ccccc2n1-c1nc(N2CCOCC2)nc(N2CCOCC2)n1 [ZSTK474]
AKTpS473
  Dose 1 (IC40): 600 nM
